What all share (assay type): cell-based
The subject of assay [1] is Jatropha curcas somatic embryos (TISEs). Description: Effect of GA3 on germination of somatic embryos.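 For all read-outs here: groups of 20–30 TISEs per medium were moved onto each medium and scored for germination traits, with GA3-free media as the comparison.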 To be noted: for Hypocotyl Extension % / Root Growth % / Viable Germination SE % / Hypocotyl Extension SE Count / Root Growth SE Count / Viable Germination SE Count: three weeks; for Hypocotyl Extension SE Count / Root Growth SE Count / Viable Germination SE Count: 30 explants.

Assay [2] deals with Jatropha curcas somatic embryo explants. The assay is described as follows: Re-initiation of somatic embryogenesis from matured somatic embryos on solid DGA and derivative media. To be noted: for production of secondary somatic embryos and embryogenic calli: supplementation in solid DGA-type medium. The protocol: Somatic embryos were matured in 2,4-D-free liquid MS medium and hypocotyl-root apex tissues were excised from somatic embryos larger than 0.5 cm. Those smaller than 0.5 cm were cultured intact. The explants were cultured in various DGA or its derivative solid medium. […] 2,4-D and kinetin could be added as optional supplements (not shown).

The subject of assay [3] is Jatropha curcas embryogenic calli. The assay is described as follows: Embryogenic liquid suspension culture. To be noted: KNO3 increased to 1.9 g/l to 3.8 g/l. The protocol:
FIGS. 5A-5D show embryogenic liquid suspension culture. About 50 mg embryogenic calli produced in solid DGA medium were inoculated in 20 ml modified DGA liquid media. Embryos larger than 2 mm were removed before inoculation. Subculture was done every two weeks. Photos were taken after 2 subcultures. FIG. 5A: 20 g/l sucrose, 1 g/l glutamine, 0.5 g/l asparagine, no 2,4-D. FIG. 5B: 20 g/l sucrose, 1 g/l glutamine, 0.5 g/l asparagine, 0.2 g/1 2,4-D. FIG. 5C: 30 g/l sucrose, 1 g/l glutamine, 0.5 g/l asparagine, 0.2 g/1 2,4-D. FIG. 5D: 20 g/l sucrose, 1 g/l glutamine, 0.5 g/l asparagine, 1 g/1 2,4-D. Arrow indicates the non-embryogenic ball-shaped calli. Scale bar represents 1 cm.
Liquid cultures were performed in 65 mm plastic cylinder containers or 250 ml glass conical flasks that were placed in shakers set at 80 rpm, 28° C. constant temperature and 16-8 hours day-light cycles.
Effects 2,4-D and carbon source on establishment of somatic embryogenic liquid suspension culture was investigated. […] At sucrose level ranging from 10-30 g/l, continued culture lead to maturation of the somatic embryo with no new initiation of secondary embryos (FIG. 5A). The somatic embryos thus produced share good synchrony and are excellent materials for re-induction of TIISEs (Refer to Example 13). […] The suspension cultures were stable for months if large embryos were removed. Further, sucrose concentration needs to be reduced below about 20 g/l (compare FIGS. 5B and 5C).

Assay [4] relates to Jatropha curcas immature embryo and endosperm explants. The assay is described as follows: Effect of kinetin on TISE and TIISE formation. The settings on record: for TIISE (%) >5 SE / TIISE (%) >10 SE / TIISE (%) Total / TISE (%): 5 mg/l 2,4-D, 6 weeks, then DGA 4 weeks. The protocol:
Developing fruits were surface-sterilized and dissected to yield 120 immature embryos that were shorter than 1.5 cm in length. After cutting into halves, the explants were cultured in media with a series of kinetin concentrations. On the 5th day, the endosperm tissues were separated from the embryos, further reduced into small pieces of about 0.25 cm^2 and transferred to the fresh medium with the same kinetin concentrations. After one subcultures (6 weeks in total), the calli were transferred to DGA medium and cultured for one month. Twenty immature embryos were used in each treatment. It was observed that TISEs were almost exclusively formed on endosperm tissues where the embryos had been detached after three's culture.

Assay [5] concerns Jatropha curcas somatic embryos. Description: Effect of abscisic acid in maturation media on germination. The settings on record: ABA 0-5 mg/l in DGA or EGA media or variants. The protocol: To further explore methods to improve germination, abscisic acid (ABA) between 0-5 mg/l was supplemented in DGA or EGA media or their variants with 10-30 g/l sucrose and 20-60 g/1 maltose. […] Examples of the effects are shown in Table 10, where 20-30 TISEs were transferred to various media listed below. Except in ¼ strength MS medium, few somatic embryos germinated without GA3. […] Reducing the strength of basal salts was likewise beneficial to germination of somatic embryos.

[6] abbreviates: Full strength MS salt and B5 vitamins, GA3 2 mg/L.
The mark [7] stands for this setting: Full strength MS salt and B5 vitamins, GA3 3 mg/L.
[8] abbreviates: ¼ Strength MS salt and B5 vitamins, GA3 2 mg/L.
The mark [9] stands for this setting: ¼ Strength MS salt and B5 vitamins, GA3 3 mg/L.
The mark [10] stands for this setting: ½ Strength MS salt and B5 vitamins, GA3 2 mg/L.
[11] abbreviates: ½ Strength MS salt and B5 vitamins, GA3 3 mg/L.

The record followed here is patent US8691576B2, “Regeneration and mass propagation of Jatropha curcas through somatic embryogenesis” (Joil (S) Pte Ltd., priority 2008, dated 2014).

As for `C=C1C[C@]23C[C@@]1(O)CC[C@H]2[C@@]12C=C[C@H](O)[C@@](C)(C(=O)O1)[C@H]2[C@@H]3C(=O)O` [GA3, gibberellic acid], the “Hypocotyl Extension %” value in assay [1] (setting [6]) is given as 30%; in assay [1] (setting [7]), 44%; in assay [1] (setting [8]) it was 32%; in assay [1] (setting [9]), 26%; in assay [1] (setting [10]), 34%; in assay [1] (setting [11]) it was 26%. For the same compound, the “Root Growth %” value in assay [1] (setting [6]) is given as 53%; in assay [1] (setting [7]), 37%; in assay [1] (setting [8]), 43%; in assay [1] (setting [9]) it was 47%; in assay [1] (setting [10]) it was 27%; in assay [1] (setting [11]), 53%. Also, the “Viable Germination SE %” value in assay [1] (setting [6]) is 30%; in assay [1] (setting [7]), 5%; in assay [1] (setting [8]) it was 19%; in assay [1] (setting [9]), 8%; in assay [1] (setting [10]), 21%; in assay [1] (setting [11]) it was 23%. The “Hypocotyl Extension SE Count” value turned out to be 16 in assay [1] (setting [6]); 16 in assay [1] (setting [7]); 14 in assay [1] (setting [8]); 12 in assay [1] (setting [9]); 9 in assay [1] (setting [10]); 14 in assay [1] (setting [11]). Also, the “Root Growth SE Count” value is listed as 16 in assay [1] (setting [6]); 11 in assay [1] (setting [7]); 13 in assay [1] (setting [8]); 14 in assay [1] (setting [9]); 8 in assay [1] (setting [10]); 16 in assay [1] (setting [11]). In addition, the “Viable Germination SE Count” value in assay [1] (setting [6]) is recorded as 9; in assay [1] (setting [7]) it was 2; in assay [1] (setting [8]), 6; in assay [1] (setting [9]), 2; in assay [1] (setting [10]) it was 7; in assay [1] (setting [11]), 6. For the same compound, the “germination of somatic embryos” value in assay [1] (many media tested) is recorded as “significantly improved germination in many media tested”.

As to `O=[N+]([O-])[O-].[K+]` [KNO3], in assay [2] (increase in KNO3 in modified DGA solid medium), the “embryo differentiation and maturation” value is on record as “favored embryo differentiation but inhibited maturation”. Besides, the “maintenance of liquid suspension culture” value in assay [3] is on record as “facilitated maintaining the liquid suspension culture at early stages of embryogenesis”.

Consider `c1coc(CNc2ncnc3[nH]cnc23)c1` [Kinetin, kinetin], for which the “TIISE (%) >5 SE” value in assay [4] (Kinetin 0.05 mg/l) came to 15%; in assay [4] (Kinetin 0.1 mg/l), 15%; in assay [4] (Kinetin 0.2 mg/l) it was 15%; in assay [4] (Kinetin 0.5 mg/l), 10%; in assay [4] (Kinetin 1 mg/l), 0%. Moreover, the “TIISE (%) >10 SE” value in assay [4] (Kinetin 0.05 mg/l) worked out at 0%; in assay [4] (Kinetin 0.1 mg/l), 5%; in assay [4] (Kinetin 0.2 mg/l), 0%; in assay [4] (Kinetin 0.5 mg/l), 5%; in assay [4] (Kinetin 1 mg/l) it was 0%. In addition, the “TIISE (%) Total” value in assay [4] (Kinetin 0.05 mg/l) is 25%; in assay [4] (Kinetin 0.1 mg/l), 30%; in assay [4] (Kinetin 0.2 mg/l), 30%; in assay [4] (Kinetin 0.5 mg/l), 20%; in assay [4] (Kinetin 1 mg/l), 15%. Also, the “TISE (%)” value in assay [4] (Kinetin 0.05 mg/l) is given as 35%; in assay [4] (Kinetin 0.1 mg/l) it was 35%; in assay [4] (Kinetin 0.2 mg/l), 40%; in assay [4] (Kinetin 0.5 mg/l) it was 25%; in assay [4] (Kinetin 1 mg/l), 45%. Moreover, in assay [4] (kinetin 0-1 mg/l), the TIISEs formation entry is listed as “appeared to negatively affect TIISEs formation”. In assay [4] (kinetin 0-1 mg/l), the “induction of TISEs” value was “played little role in induction of TISEs”.

On to `CC1=CC(=O)CC(C)(C)[C@@]1(O)/C=C/C(C)=C\C(=O)O` [abscisic acid], for which the plantlet abnormality entry in assay [5] was “plantlet abnormality was apparently increased”. The improvement of germination entry in assay [5] (germination in MS medium) was “Improvement of germination in MS medium was not observed”.

In the case of `NC(=O)C[C@H](N)C(=O)O` [asparagine], the “production of secondary somatic embryos and embryogenic calli” value in assay [2] was “greatly improved production of secondary somatic embryos and embryogenenic calli”.

`NC(=O)CC[C@H](N)C(=O)O` [glutamine]: the “production of secondary somatic embryos and embryogenic calli” value in assay [2] was “greatly improved production of secondary somatic embryos and embryogenenic calli”.
